Results published in patent US20040019092A1, “Non-peptide somatostatin receptor ligands” (priority 2001, published 2004).
Where “and” joins values, the source holds several entries; their conditions need not be identical. Equal entries are not always repeated.

Assays:
prolactin secretion = assay: Unanesthetized estradiol primed male rats, oral by gavage: prolactin; type: in vivo, rat; settings: estradiol implant male rats, oral by gavage, 1 hour; ø = no effect at this dose
Description: (§1) Table 5 summarizes the results obtained in the estradiol primed male rats that received the compounds orally by gavage. These rats have stabilized elevated GH plasma levels as well as increased prolactin levels. In contrast to normal untreated rats, who's prolactin secretion is not sensitive to the inhibitory effect of somatostain, in these rats the prolactin secretion is inhibited to a similar degree as the GH secretion. Therefore, the inhibitory effect can be measured on 2 different parameters, GH and prolactin. The mean enteral absorption and activity of the respective compounds are shown.

GH secretion [1] = assay: GH secretion in vivo, rat, intraduodenal (enteral) application, 1 h (basal); settings: for GH vivo i.d. 1 h ID50: basal GH secretion, 1 h after intraduodenal application, mostly approximate ID50 from single 10 mg/kg dose, Ø = no effect at this dose, > = extrapolated value
Method: (§2) Animals, anesthesia: Male rats of a Sprague Dawley strain (Ico:OFA-SD, Iffa-Credo, F-Lyon) of 200-300 g body weight were used. They were kept under standardized conditions and were anesthetized with pentobarbital-sodium (Siegfried, CH Zofingen), 60 mg/kg i.p. for subcutaneous and intraduodenal applications. Animals designed for an infusion experiment were anesthetized with urethane (Siegfried, CH Zofingen), 1.2 g/kg i.p.
(§3) Compounds: The compounds were dissolved, optionally with the aid of one or more of the following adjuncts:
(§4) Stock solutions of the compounds were prepared in water with the addition of the necessary adjunct(s). Further dilutions were prepared allowing 5 mL/kg for subcutaneous application, 2 mL for intraduodenal (i.d.) application or 4.5 mL/kg for intravenous infusion. The solutions for the intravenous application/infusion were made isotonic by addition of glucose to a final concentration of 5%.
(§5) Applications were made, or, in the case of infusion, started, approximately 10 minutes after induction of anesthesia. No further treatment followed subcutaneous or intraduodenal application. Ten, twenty-five and fifty-five minutes after start of the intravenous infusion the GH secretion was stimulated with repeated intravenous injections of the potent GHRH analog, D-Ala2 GHRH1-29NH2, 1 μg/kg.
(§6) One hour after subcutaneous or intraduodenal application of the compounds, blood was collected from the trunk after decapitation. In the case of application by infusion, 5 minutes after each application of GHRH, a blood sample of 0.8 mL was taken from a V. jugularis and mixed with EDTA (Eppendorf tubes TOM14, Milian, CH Geneva). The blood samples were kept on ice and spun in a cooled centrifuge. The serum or plasma was separated and frozen.
(§7) Statistics: In each experiment, 4-5 animals were used per dose, with 6 to 8 animals as the control group that received the vehicle. The GH serum/plasma levels were averaged, the mean of the treated groups expressed in percent of the control group and the ID50-value for the inhibition of the secretion was determined graphically (log-probit) for each experiment. In most experiments with enteral (intraduodenal) application only 1 dose, 10 mg/kg, was given. […] Only inhibitions between 20 and 80% were considered reliable.
(§8) Two to four experiments were performed. In the case of proper dose response curves, allowing the determination of an ID50 values were averaged logarithmically. In the cases of single dose-experiments, the GH value in percent of control were averaged logarithmically and the ID50 for this value was taken from the table. ID50 values determined at the different time points during the infusion were averaged and this value was included in the tables.

[2] = system: GHRH stimulated GH secretion; assay: GH secretion, rat in urethan anesthesia, intraduodenal + repeated GHRH stimulation; type: in vivo
Description: No further treatment followed subcutaneous or intraduodenal application. […] This value has been determined in a total of four independent experiments. […] However, in further studies compound 47 has also been tested by the enteral route of administration after repeated stimulation of the GH secretion by GHRH. […] With most of these selected compounds additional in vivo experiments in other models (intraduodenal application followed by repeated stimulation of the GH secretion by GHRH, oral application by gavage of unanesthetized, estradiol primed rats) were performed. Table 4 summarizes data obtained for the inhibition of the stimulated GH secretion after subcutaneous, intraduodenal and intravenous application and the inhibitory effects obtained for different time points during intravenous infusion of selected hydantoins. […] [table]

[3] = system: GHRH induced GH secretion in primary cultures of rat pituitary cells; assay: In vitro inhibition of GHRH induced GH secretion (GH vitro +GHRH); type: cell-based
GH secretion [4] = assay: GH secretion in vivo, rat, subcutaneous application, 1 h (basal); settings: rat, basal GH secretion, 1 h after subcutaneous application
Method: as §2, §3, §4, §5, §6, §7, §8

SS1 = SS1 (Rattus norvegicus, UniProt P30680); assay: SS-1 binding (Bind SS1 D.H.)
[5] = system: GHRH stimulated GH secretion; assay: GH secretion in vivo, rat, intravenous infusion with repeated GHRH stimulation; settings: for INFUS. + GHRH ID50 MEAN: Table 4, mean of infusion time points; for INFUS. + GHRH ID50 15′ / INFUS. + GHRH ID50 30′ / INFUS. + GHRH ID50 60′: Table 4, urethan; for GH vivo Inf + GHRH ID50 (mean of time points): urethane, i.v. infusion, GHRH stimulated
Method: as §2, §4, §5, §6, §7, §8

[6] = system: GHRH stimulated GH secretion; assay: GH secretion, rat in urethan anesthesia, subcutaneous + repeated GHRH stimulation; type: in vivo
Method: as §5
With most of these selected compounds additional in vivo experiments in other models (intraduodenal application followed by repeated stimulation of the GH secretion by GHRH, oral application by gavage of unanesthetized, estradiol primed rats) were performed. Table 4 summarizes data obtained for the inhibition of the stimulated GH secretion after subcutaneous, intraduodenal and intravenous application and the inhibitory effects obtained for different time points during intravenous infusion of selected hydantoins.

GH secretion [7] = assay: Unanesthetized estradiol primed male rats, oral by gavage: GH; type: in vivo, rat; settings: estradiol implant male rats, oral by gavage, 1 hour
Method: The inhibitory effect of the compounds on GH release may also be examined after oral application to male rats with oestradiol implants. This test is carried out as follows.
A loop (length 50 mmØ3 mm) of silastic with 50 mg of oestradiol is implanted under the dorsal skin of anaesthetized male OFA rats that have a weight of ca. 300 g. At various times (1 to 6 months later), these animals, in a fasted state, are used repeatedly for tests. The test substances are active in this test at doses from 0.1 to 5 mg/kg, when GH level in the blood serum is determined by radio-immunoassay 1 and 2 hours after oral administration.
as §1

[8] = target: T1, human sst2 receptor sub-type (Homo sapiens, UniProt P30874); assay: In vitro binding, human sst2 receptor sub-type (SSTR2); settings: Tables 8/9: Bind SSTR2 nM
T1 construct: host or cells: SRIF receptor expressing cell cultures (general statement only)
Method: The in vitro binding affinities for rat cortex SRIF receptors and the human sst2 receptor sub-type was assessed. Further the in vitro inhibition of the GHRH induced GH secretion in primary cultures of rat pituitary cells as well as the in vivo inhibition of GH secretion in the rat after systemic or enteral application was studied. […] Therefore, the in vivo activities of the compounds in rats with respect to inhibition of growth hormone release was also assessed. Most compounds selected were tested by enteral—intraduodenal (i.d.) application. For determination of the absolute activity and for the calculation of an enteral bioavailability, single subcutaneous (s.c.) application of intravenous (i.v.) infusion was used.

T1 sequence (P30874 whole entry): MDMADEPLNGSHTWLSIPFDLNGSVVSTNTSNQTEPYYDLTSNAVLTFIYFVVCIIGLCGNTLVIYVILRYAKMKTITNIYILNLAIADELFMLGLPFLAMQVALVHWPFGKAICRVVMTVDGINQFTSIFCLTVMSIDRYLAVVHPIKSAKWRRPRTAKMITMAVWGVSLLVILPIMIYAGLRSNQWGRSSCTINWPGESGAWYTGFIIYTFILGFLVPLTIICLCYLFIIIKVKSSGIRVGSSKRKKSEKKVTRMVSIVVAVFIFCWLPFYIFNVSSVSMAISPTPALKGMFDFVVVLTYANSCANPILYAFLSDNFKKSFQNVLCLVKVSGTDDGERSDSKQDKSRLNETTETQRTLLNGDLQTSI
Sequence of SS1 (P30680 whole entry, the tested form may be a part): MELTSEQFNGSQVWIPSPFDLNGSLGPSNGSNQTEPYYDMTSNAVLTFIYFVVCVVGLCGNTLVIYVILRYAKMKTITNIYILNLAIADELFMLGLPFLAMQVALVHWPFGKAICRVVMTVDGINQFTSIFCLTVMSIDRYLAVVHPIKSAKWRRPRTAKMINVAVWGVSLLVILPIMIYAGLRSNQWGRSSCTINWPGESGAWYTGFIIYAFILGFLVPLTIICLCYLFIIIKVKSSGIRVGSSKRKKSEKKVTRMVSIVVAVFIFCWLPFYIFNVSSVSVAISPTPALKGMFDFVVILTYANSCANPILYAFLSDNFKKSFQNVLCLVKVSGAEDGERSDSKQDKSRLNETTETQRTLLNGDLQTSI

SMILES: C[C@@H](O)[C@@H]1NC(=O)[C@H](CCCCN)NC(=O)[C@@H](Cc2c[nH]c3ccccc23)NC(=O)[C@H](Cc2ccccc2)NC(=O)[C@@H](NC(=O)[C@H](N)Cc2ccccc2)CSSC[C@@H](C(=O)N[C@H](CO)[C@@H](C)O)NC1=O [Octreotride, Octreotide, reference compound]
- PROLACT 1 H ID50 (prolactin secretion): 998 µg/kg
- GH vivo i.d. 1 h ID50 (GH secretion [1]): 125 µg/kg
- INTRADUODENAL + GHRH ID50 15′ ([2]; urethan, 15′, ø = no effect at this dose): 24.2 µg/kg
- INTRADUODENAL + GHRH ID50 30′ ([2]; urethan, 30′): 16.6 µg/kg
- INTRADUODENAL + GHRH ID50 60′ ([2]; urethan, 60′): 26.8 µg/kg
- INTRADUODENAL + GHRH ID50 120′ ([2]; urethan, 120′, ø = no effect at this dose): 82.0 µg/kg
- IC50 [3]: 1.3 nM
- GH vivo s.c. 1 h ID50 (GH secretion [4]): 0.13 µg/kg
- Bind SS1 D.H. (SS1): 0.30 nM
- INFUS. + GHRH ID50 MEAN [5]: 0.12 µg/kg
- INFUS. + GHRH ID50 15′ ([5]; 15′ of infusion): 0.16 µg/kg
- INFUS. + GHRH ID50 30′ ([5]; 30′ of infusion): 0.11 µg/kg
- INFUS. + GHRH ID50 60′ ([5]; 60′ of infusion): 0.10 µg/kg
- GH, Ur Inf15′ +GHRH ([5]; Tables 8/9, urethane, 15′ of infusion): 0.124 µg/kg/h
- GH, UR Inf30′ +GHRH ([5]; Tables 8/9, urethane, 30′ of infusion): 0.082 µg/kg/h
- GH, UR Inf60′ +GHRH ([5]; Tables 8/9, urethane, 60′ of infusion): 0.085 µg/kg/h
- GH vivo Inf + GHRH ID50 (mean of time points) ([5]; listed as Octreotride ac): 0.12 µg/kg/h and 0.096 µg/kg/h
- GH vivo Inf + GHRH ID50 (mean of time points) ([5]; listed as octreotride ac): 0.096 µg/kg/h
- SUBCUTANEOUS + GHRH ID50 15′ ([6]; 15′): 0.15 µg/kg
- SUBCUTANEOUS + GHRH ID50 30′ ([6]; 30′): 0.15 µg/kg
- SUBCUTANEOUS + GHRH ID50 60′ ([6]; 60′): 0.26 µg/kg
- GH 1 H ID50 (GH secretion [7]): 440 µg/kg
- MEAN ID50 (GH and prolactin) (GH secretion [7]): 663 µg/kg

SMILES: Cc1cccc2c(CC3C(=O)N(CCCCC(C)(C)N)C(=O)N3S(=O)(=O)c3ccc(Oc4ccc(O)c(Cl)c4)c(C(=O)N(C)C)c3)c[nH]c12 (stereo not shown) [Compound 47]
- GH vivo i.d. 1 h ID50 (GH secretion [1]): ˜454 μg/kg
- enteral ID50 (GH secretion) (GH secretion [1]; enteral (intraduodenal) application): 500 µg/kg
- enteral bioavailability (from ID50 ratio) (GH secretion [1]; intraduodenal 1 hour vs parenteral ID50): 1.8%
- IC50 [8]: 0.38 nM
- bioavailability calculated in the GHRH stimulated enteral model [2]: 0.3%
- enteral ID50 after repeated stimulation of the GH secretion by GHRH ([2]; 1 hour): ~2600 µg/kg
- GH vivo s.c. 1 h ID50 (GH secretion [4]): 10.00 µg/kg
- GH vivo Inf + GHRH ID50 (mean of time points) [5]: 8.10 µg/kg/h

SMILES: C[C@H](N)C(=O)NCC(=O)N[C@H]1CSSC[C@@H](C(=O)O)NC(=O)[C@H](CO)NC(=O)[C@H]([C@@H](C)O)NC(=O)[C@H](Cc2ccccc2)NC(=O)[C@H]([C@@H](C)O)NC(=O)[C@H](CCCCN)NC(=O)[C@H](Cc2c[nH]c3ccccc23)NC(=O)[C@H](Cc2ccccc2)NC(=O)[C@H](Cc2ccccc2)NC(=O)[C@H](CC(N)=O)NC(=O)[C@H](CCCCN)NC1=O [SRIF14, somatostatin 14, reference compound]
- INFUS. + GHRH ID50 MEAN [5]: 3.90 µg/kg
- INFUS. + GHRH ID50 15′ ([5]; 15′ of infusion): 6.00 µg/kg
- INFUS. + GHRH ID50 30′ ([5]; 30′ of infusion): 3.35 µg/kg
- INFUS. + GHRH ID50 60′ ([5]; 60′ of infusion): 2.90 µg/kg

SMILES: Cc1cccc2c(CC3C(=O)N(CCCCCN)C(=O)N3S(=O)(=O)c3ccc(Oc4ccc(O)c(Cl)c4)c(C(=O)N(C)C)c3)c[nH]c12 (single isomer, unassigned; (+)) [(+)-43]
- GH vivo i.d. 1 h ID50 (GH secretion [1]): 4800 µg/kg
- IC50 [8]: 0.18 nM
- GH vivo s.c. 1 h ID50 (GH secretion [4]): 3.0 µg/kg
- GH vivo s.c. 1 h ID50 (GH secretion [4]; listed as (+)−43): 3.00 µg/kg
- GH vivo s.c. 1 h ID50 (GH secretion [4]; listed as (+)−43 ch): 3.00 µg/kg
- INFUS. + GHRH ID50 MEAN [5]: 1.68 µg/kg
- INFUS. + GHRH ID50 15′ ([5]; 15′ of infusion): 2.28 µg/kg
- INFUS. + GHRH ID50 30′ ([5]; 30′ of infusion): 1.54 µg/kg
- INFUS. + GHRH ID50 60′ ([5]; 60′ of infusion): 1.35 µg/kg
- GH vivo Inf + GHRH ID50 (mean of time points) [5]: 1.68 µg/kg/h

SMILES: CN(C)C(=O)c1cc(S(=O)(=O)N2C(=O)N(CCCCCN)C(=O)C2Cc2c[nH]c3ccccc23)ccc1Oc1ccc(OC(=O)C(N)CCCCN)c(Cl)c1 (stereo not shown) [Compound 48]
- PROLACT 1 H ID50 (prolactin secretion): 9000 µg/kg
- GH inhibition by the enteral route (GH secretion [1]; 10 mg/kg enteral): exhibited inhibition
- GH vivo i.d. 1 h ID50 (GH secretion [1]): > 15000 µg/kg
- IC50 [8]: 2.5 nM
- GH vivo Inf + GHRH ID50 (mean of time points) [5]: 32.00 µg/kg/h
- GH 1 H ID50 (GH secretion [7]): 11000 µg/kg
- MEAN ID50 (GH and prolactin) (GH secretion [7]): 9950 µg/kg
